In ChEMBL document CHEMBL2034903, “Bis-spirolabdane diterpenoids from Leonotis nepetaefolia” (J Nat Prod, 2012):

Tests used:
[1] = target: T1, Muscarinic acetylcholine receptor M3 (Homo sapiens, UniProt P20309); assay: Displacement of [3H]QNB from human muscarinic M3 receptor at 10 uM
Target sequence in this assay (P20309 whole entry, looked up): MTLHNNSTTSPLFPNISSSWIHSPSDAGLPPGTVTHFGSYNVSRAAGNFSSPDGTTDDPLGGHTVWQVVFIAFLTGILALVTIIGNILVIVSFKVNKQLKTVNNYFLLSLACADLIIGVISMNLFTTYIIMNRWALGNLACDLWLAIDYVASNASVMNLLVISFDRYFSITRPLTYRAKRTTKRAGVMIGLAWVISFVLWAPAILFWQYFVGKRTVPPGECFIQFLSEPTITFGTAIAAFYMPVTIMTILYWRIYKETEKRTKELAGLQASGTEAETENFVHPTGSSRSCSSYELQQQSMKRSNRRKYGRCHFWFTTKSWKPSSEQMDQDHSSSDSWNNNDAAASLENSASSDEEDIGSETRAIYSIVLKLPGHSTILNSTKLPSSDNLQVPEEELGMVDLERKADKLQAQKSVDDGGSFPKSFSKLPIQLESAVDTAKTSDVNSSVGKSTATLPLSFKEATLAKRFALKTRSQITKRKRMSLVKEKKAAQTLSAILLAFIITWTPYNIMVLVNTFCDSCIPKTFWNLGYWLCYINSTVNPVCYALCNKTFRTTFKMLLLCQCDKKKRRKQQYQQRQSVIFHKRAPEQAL

D(1B) dopamine receptor [2] = target: T2, D(1B) dopamine receptor (Homo sapiens, UniProt P21918); assay: Displacement of [3H]SCH23390 from human dopamine D5 receptor at 10 uM
D(1B) dopamine receptor [3] = target: T2, D(1B) dopamine receptor; assay: Binding affinity to human dopamine D5 receptor
Histamine H2 receptor [4] = target: T3, Histamine H2 receptor (Homo sapiens, UniProt P25021); assay: Binding affinity to human histamine H2 receptor
T3 sequence (P25021 whole entry): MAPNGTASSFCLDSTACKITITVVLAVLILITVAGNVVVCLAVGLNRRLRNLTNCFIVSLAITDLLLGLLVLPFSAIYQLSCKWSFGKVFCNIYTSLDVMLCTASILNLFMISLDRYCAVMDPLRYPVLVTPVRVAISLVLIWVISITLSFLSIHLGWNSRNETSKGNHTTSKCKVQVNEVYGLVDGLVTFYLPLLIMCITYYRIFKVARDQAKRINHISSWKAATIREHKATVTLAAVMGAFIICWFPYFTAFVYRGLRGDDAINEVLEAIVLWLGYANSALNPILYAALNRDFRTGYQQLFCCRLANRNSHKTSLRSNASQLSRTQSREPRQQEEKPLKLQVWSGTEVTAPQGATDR

[5] = target: T1, Muscarinic acetylcholine receptor M3; assay: Binding affinity to human muscarinic M3 receptor
Target sequence in this assay (P20309 whole entry): as the sequence (P20309 whole entry, looked up) above

Histamine H2 receptor [6] = target: T3, Histamine H2 receptor; conditions: 10 uM
Description: Inhibition of human histamine H2 receptor at 10 uM

T2 sequence (P21918 whole entry): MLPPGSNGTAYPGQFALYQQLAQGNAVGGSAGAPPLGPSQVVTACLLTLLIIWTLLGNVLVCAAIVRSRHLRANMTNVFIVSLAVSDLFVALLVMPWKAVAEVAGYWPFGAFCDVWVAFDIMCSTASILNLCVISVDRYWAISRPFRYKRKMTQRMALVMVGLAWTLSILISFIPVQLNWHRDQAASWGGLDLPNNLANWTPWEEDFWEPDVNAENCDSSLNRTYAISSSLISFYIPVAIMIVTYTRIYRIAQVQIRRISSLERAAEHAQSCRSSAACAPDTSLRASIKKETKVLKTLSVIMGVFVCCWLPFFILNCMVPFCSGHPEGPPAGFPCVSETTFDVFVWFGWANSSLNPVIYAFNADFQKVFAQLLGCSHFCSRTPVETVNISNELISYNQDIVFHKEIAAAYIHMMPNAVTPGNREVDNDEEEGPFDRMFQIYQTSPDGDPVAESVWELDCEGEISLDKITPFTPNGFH

Structure (SMILES) | inhibition [1] [%] | inhibition (D(1B) dopamine receptor [2]) [%] | Ki (D(1B) dopamine receptor [3]) [µM] | Ki (Histamine H2 receptor [4]) [µM] | Ki [5] [µM] | inhibition (Histamine H2 receptor [6]) [%]
CO[C@H]1C[C@]2(CC[C@@]3(O2)[C@]2(CO2)C[C@@H](OC(C)=O)[C@@H]2[C@]34CCC[C@]2(C)C(=O)OC4)CO1 | > 50 | – | – | – | – | –
C[C@@]12CCC[C@]3(C)C(=O)O[C@H](C[C@@]4(CO4)[C@]14CC[C@]1(COC(O)C1)O4)[C@H]23 (mixture of isomers) | > 50 | > 50 | – | – | – | –
C[C@@]12CCC[C@]3(C)C(=O)O[C@H](C[C@@]4(CO4)[C@]1(O)CCc1ccoc1)[C@H]23 [LEONOTININ] | – | – | > 10 | > 10 | > 10 | > 50
